Measured values reported in publication PMC6927504, “Screening of House Dust from Chinese Homes for Chemicals with Liver X Receptors Binding Activities and Characterization of Atherosclerotic Activity Using an in Vitro Macrophage Cell Line and ApoE^−/− Mice” (Environmental Health Perspectives, 2019).
Read-outs that look alike come from different tables or passages of the source.

Key:
human LXRβ [1] = biological target: T1, human LXRβ (Homo sapiens, UniProt P55055); test: Yeast two-hybrid assay (LXRβ LBD with coactivator TIF2, β-galactosidase readout)
T1 sequence (P55055 219-460): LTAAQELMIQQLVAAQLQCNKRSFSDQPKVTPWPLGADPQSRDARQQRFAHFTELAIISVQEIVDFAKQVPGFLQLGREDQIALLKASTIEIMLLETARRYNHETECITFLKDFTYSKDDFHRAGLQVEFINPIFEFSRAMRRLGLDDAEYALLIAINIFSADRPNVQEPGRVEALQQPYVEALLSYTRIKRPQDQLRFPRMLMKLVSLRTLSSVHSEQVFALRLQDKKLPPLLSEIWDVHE

human LXRα [2] = biological target: T2, human LXRα (Homo sapiens, UniProt Q13133); test: cell-based
T2 construct: expressed in transfected cells; host or cells: Saccharomyces cerevisiae Y187
T2 sequence (Q13133 205-447): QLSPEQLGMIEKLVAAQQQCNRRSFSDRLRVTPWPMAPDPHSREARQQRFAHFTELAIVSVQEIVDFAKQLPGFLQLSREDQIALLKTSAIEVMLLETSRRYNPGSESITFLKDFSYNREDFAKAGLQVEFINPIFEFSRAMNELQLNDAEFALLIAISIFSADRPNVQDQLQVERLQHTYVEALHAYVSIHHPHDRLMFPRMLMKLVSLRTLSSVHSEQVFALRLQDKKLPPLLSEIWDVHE

human LXRβ [3] = biological target: T1, human LXRβ; test: cell-based
atherosclerotic mice = tested on: atherosclerotic mice; set-up: method as in Joseph et al. 2002; conditions: ref Joseph et al. 2002; cited from earlier work
human LXRα [4] = biological target: T3, human LXRα (Homo sapiens, UniProt Q13133); type: binding
T3 construct: the full-length human LXRα gene was amplified by polymerase chain reaction (PCR); made in house; host or cells: E. coli BL21
T3 sequence (Q13133 1-447): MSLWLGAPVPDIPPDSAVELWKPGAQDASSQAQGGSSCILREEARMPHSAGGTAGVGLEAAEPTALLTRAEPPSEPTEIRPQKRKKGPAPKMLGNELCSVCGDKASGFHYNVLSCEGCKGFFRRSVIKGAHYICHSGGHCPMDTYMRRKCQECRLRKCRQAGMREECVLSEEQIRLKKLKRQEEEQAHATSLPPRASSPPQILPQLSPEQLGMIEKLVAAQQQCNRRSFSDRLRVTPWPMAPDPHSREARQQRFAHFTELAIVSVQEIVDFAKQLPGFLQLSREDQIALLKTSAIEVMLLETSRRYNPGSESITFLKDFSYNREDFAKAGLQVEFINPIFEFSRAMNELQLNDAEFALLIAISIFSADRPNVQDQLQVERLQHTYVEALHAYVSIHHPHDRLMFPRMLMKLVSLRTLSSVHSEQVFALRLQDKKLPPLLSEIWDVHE

ABCG1 = test: qRT-PCR of LXR target gene ABCG1 in RAW264.7 macrophages; type: cell-based; conditions: TO901317 at 5–100 nM with TPHP 10,000 nM
Protocol: (§1) RAW264.7 cells were obtained from the National Infrastructure of Cell Line Resource of Beijing, China, and the cells used for the experiment were cultured for at least three passages. Dulbecco’s Modified Eagle’s Medium (DMEM)-F12 medium containing 10% fetal bovine serum (FBS) was employed to culture the RAW264.7 cells. RAW264.7 cells were incubated at 37°C with 5% carbon dioxide. The RAW264.7 cells were plated at 2.5×10^5 cells/well (6-well plates), 6.0×10^4 cells/well (24-well plates), and 10^4 cells/well (96-well plates). The RAW264.7 cells were plated and grown overnight; then the medium was removed and fresh DMEM-F12 contained with 0.1% DMSO (control; n=3 ) or TPHP at the concentrations of 1–20,000 nM ( n=3 per group) was added. […] Then the cells were used for the quantitative reverse transcription (qRT)-PCR, cellular cholesterol efflux assay, and foam cell formation experiment.
(§2) Total RNA was isolated from RAW264.7 cells and mouse peritoneal macrophages using TRIzol reagent according to the manufacturer’s instructions. Then a Nanovue Plus™ spectrophotometer (GE Healthcare Life Science) was used to analyze the concentration, quality, and purity of the RNA. Total RNA ( 1μg ) was mixed with oligo deoxythymine (dT) ( 1μL ) at 70°C for 5 min and then combined with a mixture containing Moloney murine leukemia virus (MMLV) reverse transcriptase ( 1μL ), deoxy-ribonucleoside triphosphate (dNTP) ( 1.25μL ), Recombinant RNasin® Ribonuclease Inhibitor (Promega) ( 0.65μL ), and MMLV buffer ( 5μL ) at 42°C for 60 min. The SYBR® Green PCR Kit (TOYOBO) was used for RT-PCR analysis. Real-time fluorescence detection was performed using the StepOnePlus™ sequence detection system (Applied Biosystems). […] The following primers were designed and purchased from Sangon Biotech:
(§3) • actin: 5′-[…]-3′ and 5′-[…]-3′ ATP-binding cassette transporter A1 (ABCA1): 5′-[…]-3′ and 5′-[…]-3′ • ATP-binding cassette transporter G1 (ABCG1): 5′-[…]-3′ and 5′-[…]-3′.

ABCA1 = test: qRT-PCR of LXR target gene ABCA1 in RAW264.7 macrophages; type: cell-based; conditions: TO901317 at 5–100 nM with TPHP 10,000 nM
Protocol: as §1, §2, §3

[5] = dust standard reference material SRM2585
[6] = range over indoor dust samples (Table S4)

O=[N+]([O-])c1ccc(O)cc1 [PNP, p-nitrophenol]
EC50 (human LXRβ [1]): 15.1 µM | EC50 (human LXRα [2]; agonist mode, β-galactosidase activity, n=3): 14 µM

CCOC(=O)c1ccc(CN(Cc2ccc(-c3cccc(S(C)(=O)=O)c3)cc2)S(=O)(=O)c2c(C)cc(C)cc2C)o1 [SR9238, reference compound]
IC50 (human LXRβ [3]): 0.446 µM | IC50 (human LXRα [2]; read-out: IC50 for LXRα (antagonist activity)): 0.825 µM

O=C(O)Cc1cccc(OCCCN(Cc2cccc(C(F)(F)F)c2Cl)CC(c2ccccc2)c2ccccc2)c1 [GW3965]
Atherosclerotic plaques (atherosclerotic mice): promoted regression of atherosclerotic plaques | Foam cell formation (atherosclerotic mice): inhibited foam cell formation

CCCCC(CC)COP(=O)(Oc1ccccc1)Oc1ccccc1 (centres unmarked) [EHDPP, 2-ethylhexyl diphenyl phosphate]
Contribution to the LXRβ-antagonist activity of SRM2585 (human LXRβ [1]; [5]): 1.55% | Share of the LXRβ-antagonist activity of indoor dust explained by the chemical (human LXRβ [1]; [6]): 0.01–22.92% | IC50 (human LXRβ [3]): 2.17 µM | IC50 (human LXRα [2]): 5.69 µM | Contribution to the LXRα-antagonist activity of SRM2585 (human LXRα [2]; [5]): 3.01% | Share of the LXRα-antagonist activity of indoor dust explained by the chemical (human LXRα [2]; [6]): 0.01–25.02%

O=S(=O)(c1ccccc1)N(CC(F)(F)F)c1ccc(C(O)(C(F)(F)F)C(F)(F)F)cc1 [TO901317]
Average percentage pulled down of the spiked concentration (human LXRα [4]; His-TF-LXRα group): 89% | Average percentage pulled down of the spiked concentration (human LXRα [4]; control group (His-TF protein without LXRα)): 10% | Recovery in pull-down by recombinant LXRα (human LXRα [4]; spiked at 0.25 μg/L): 100%±3% | Recovery in pull-down by recombinant LXRα (human LXRα [4]; spiked at 2.5 μg/L): 85%±5% | Recovery in pull-down by recombinant LXRα (human LXRα [4]; spiked at 25 μg/L): 80%±0.7% | Recovery in pull-down by recombinant LXRα (human LXRα [4]; spiked at 250 μg/L): 92%±4% | ABCG1 gene expression in cells co-exposed to TPHP, versus TPHP alone (ABCG1): dose-dependently higher | ABCA1 gene expression in cells co-exposed to TPHP, versus TPHP alone (ABCA1): dose-dependently higher
